The source of these data is patent US9718790B2, “Triazine derivative and pharmaceutical composition having an analgesic activity comprising the same” (SHIONOGI & CO., LTD., priority 2010, dated 2017).

One test deals with human P2X3 receptor (Homo sapiens (Human), UniProt P56373). The test can be described thus: Evaluation of human P2X3 receptor inhibitory activity (Fluo-3 calcium fluorescence, FDSS 3000, ATP stimulation).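 Further: stimulus was 50 nM ATP with fluorescence followed for 3 min, and the response per well was peak post-ATP fluorescence divided by the reading at measurement start.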 The test is classed as cell-based. Particulars: C6BU-1 cells stably expressing human P2X3 receptor.
human P2X3 receptor, sequence (P56373 whole entry): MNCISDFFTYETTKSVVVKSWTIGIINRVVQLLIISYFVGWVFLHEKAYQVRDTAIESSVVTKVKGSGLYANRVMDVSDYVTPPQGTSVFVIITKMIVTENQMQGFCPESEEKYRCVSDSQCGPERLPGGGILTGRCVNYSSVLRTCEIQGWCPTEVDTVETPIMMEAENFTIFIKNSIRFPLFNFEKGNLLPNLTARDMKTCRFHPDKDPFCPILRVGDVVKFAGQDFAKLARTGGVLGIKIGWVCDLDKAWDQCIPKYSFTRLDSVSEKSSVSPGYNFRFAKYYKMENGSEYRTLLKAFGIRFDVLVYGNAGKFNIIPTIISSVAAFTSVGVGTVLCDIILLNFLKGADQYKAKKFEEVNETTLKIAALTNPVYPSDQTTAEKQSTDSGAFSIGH
In general, IC50 refers to the point on the concentration scale where inhibition reaches its midpoint. As to `CC(C)Oc1ccc(/N=c2\[nH]c(=O)n(C[C@H]3CC(=O)N([C@@H](C)c4ccccc4)C3)c(=O)n2Cc2ccc(Cl)cc2)cc1F` [Compound I-0661], the IC50 came out at 0.007 µM.

With `CCn1c(=O)[nH]/c(=N\c2ccc(OCC3(C(=O)O)CC3)cc2)n(Cc2ccc(Cl)cc2)c1=O` [Compound I-2021], the IC50 was determined as 0.23 µM.

`Cc1cc(/N=c2\[nH]c(=O)n(-c3ccc(C(=O)O)cc3)c(=O)n2Cc2ccc(Cl)cc2)ccc1OC(C)C` [Compound I-0762]: the half-inhibitory concentration (IC50) turned out to be 0.082 µM.

Turning to `Cc1[nH]c2ccc(/N=c3\[nH]c(=O)n(CCOC4CCCCO4)c(=O)n3Cc3ccc(Cl)cc3)cc2c1C` (stereo not drawn) [Compound I-2038], the IC50 came to 0.013 µM.

Turning to `COC(=O)[C@@H](C)Cn1c(=O)[nH]/c(=N\c2ccc(C=C(C)C)nc2)n(Cc2ccc(C)cc2)c1=O` [Compound I-1301], the IC50 worked out at 0.514 µM.

In the case of `CC(C)Oc1ccc(/N=c2\[nH]c(=O)n(CCN(CCO)C(=O)OC(C)(C)C)c(=O)n2Cc2ccc(Cl)cc2)cc1F` [Compound I-2109], the IC50 was determined as 0.011 µM.

As to `COC(=O)CCCCn1c(=O)[nH]/c(=N\c2ccc(OC(C)C)c(Cl)c2)n(Cc2ccc(Cl)cc2)c1=O` [Compound I-2182], the IC50 is 0.003 µM.

Consider `COC(=O)[C@@H](C)Cn1c(=O)[nH]/c(=N\c2ccc(C)c(Cl)c2)n(Cc2ccc(Cl)cc2)c1=O` [Compound I-0691], for which the IC50 was determined as 0.048 µM.

For the compound `C[C@@H](Cn1c(=O)[nH]/c(=N\c2cnc(OC3CCC3)c(Cl)c2)n(Cc2ccc(Cl)cc2)c1=O)C(=O)O` [Compound I-1411], the half-inhibitory concentration (IC50) amounted to 0.058 µM.

As for `Cc1ccc(Oc2ccc(/N=c3\[nH]c(=O)n(CC(=O)NCCO)c(=O)n3Cc3ccc(Cl)cc3)cc2)cn1` [Compound I-1980], the IC50 turned out to be 0.007 µM.

On to `NC(=O)Cn1c(=O)[nH]/c(=N\c2ccc(Oc3ccnc(O)c3)cc2)n(Cc2ccc(Cl)cc2)c1=O` [Compound I-1977], for which the IC50 was 0.005 µM.

For `CCOC(=O)CCn1c(=O)[nH]/c(=N\c2ccc(OC3CCC3)c(Cl)c2)n(Cc2ccc(C)cc2)c1=O` [Compound I-1328], the IC50 is 0.012 µM.

As to `Cc1cc(/N=c2\[nH]c(=O)n(C[C@H](O)CO)c(=O)n2Cc2ccc(Cl)cc2)ccc1OC(C)C` [Compound I-0722], the IC50 was found to be 0.014 µM.

As for `CCOC(=O)CCn1c(=O)[nH]/c(=N\c2ccc(OC(C)C)c(OC)c2)n(Cc2ccc(C)cc2)c1=O` [Compound I-1246], the IC50 was determined as 0.006 µM.

In the case of `CCOC(=O)CCn1c(=O)[nH]/c(=N\c2ccc(CC(C)C)c(F)c2)n(Cc2ccc(C)cc2)c1=O` [Compound I-1298], the IC50 was 0.026 µM.

For `CNC(=O)[C@@H](C)Cn1c(=O)[nH]/c(=N\c2ccc(OC(C)C)c(C)c2)n(Cc2ccc(Cl)cc2)c1=O` [Compound I-0721], the half-inhibitory concentration (IC50) amounted to 0.013 µM.

Regarding `CCn1c(=O)[nH]/c(=N\c2ccc(Oc3cccc(C(=O)O)n3)cc2)n(Cc2ccc(Cl)cc2)c1=O` [Compound I-2095], the half-inhibitory concentration (IC50) stood at 0.005 µM.

With `CCOC(=O)CCn1c(=O)[nH]/c(=N\c2ccc(Oc3ccnc(O)c3)cc2)n(Cc2ccc(Cl)cc2)c1=O` [Compound I-1434], the IC50 came to 0.002 µM.

Regarding `CC(C)Oc1ccc(/N=c2\[nH]c(=O)n(CCS(=O)(=O)O)c(=O)n2Cc2ccc(Cl)cc2)cc1F` [Compound I-0654], the IC50 amounted to 0.026 µM.

Staying with this test, now noted: C6BU-1 cells stably expressing human P2X3 receptor, Fluo-3 fluorescence, FDSS 3000.
Regarding `COC(=O)[C@@H](C)Cn1c(=O)[nH]/c(=N\c2ccc(OC(F)(F)F)cc2)n(Cc2ccc(C)cc2)c1=O` [Compound I-0999], the IC50 was 0.174 µM.

Take `CC(=O)NCCCn1c(=O)[nH]/c(=N\c2ccc(CC(C)C)c(Cl)c2)n(Cc2ccc(Cl)cc2)c1=O` [Compound I-1614]: the IC50 is 0.009 µM.

Turning to `Cc1cc(/N=c2\[nH]c(=O)n([C@H](C)[C@@H](C)C(=O)N[C@H](C)[C@@H](O)c3ccccc3)c(=O)n2Cc2ccc(Cl)cc2)ccc1OC(C)C` [Compound I-1163], the IC50 was 0.823 µM.

As to `CCOc1ccc(/N=c2\[nH]c(=O)n(CC(CO)CO)c(=O)n2Cc2ccc(Cl)cc2)cc1Cl` [Compound I-1906], the IC50 amounted to 0.006 µM.

In the case of `CNC(=O)Cn1c(=O)[nH]/c(=N\c2ccc(Oc3ccc(OC)nc3)cc2)n(Cc2ccc(Cl)cc2)c1=O` [Compound I-1857], the IC50 was 0.007 µM.

For `Cc1ccc(Cn2c(=O)n(C[C@H](C)C(=O)O)c(=O)[nH]/c2=N\c2ccc(Oc3ccn(C)c(=O)c3)cc2)cc1` [Compound I-1595], the IC50 came out at 0.006 µM.

As for `COC(=O)[C@@H](C)Cn1c(=O)[nH]/c(=N\c2ccc(OC(C)C)c(C#N)c2)n(Cc2ccc(Cl)cc2)c1=O` [Compound I-0953], the IC50 came out at 0.042 µM.

For the compound `CC(=O)OCC(CO)CCn1c(=O)[nH]/c(=N\c2ccc3nc(C)sc3c2)n(Cc2ccc(Cl)cc2)c1=O` (stereo not drawn) [Compound I-1851], the IC50 worked out at 0.004 µM.

For `C[C@@H](C(=O)O)[C@H](C)n1c(=O)[nH]/c(=N\c2ccc3nc(C4CC4)sc3c2)n(Cc2ccc(Cl)cc2)c1=O` [Compound I-1586], the IC50 was found to be 0.013 µM.

For the compound `CC(=O)Nc1nc2ccc(/N=c3\[nH]c(=O)n([C@@H](C)[C@@H](C)C(=O)O)c(=O)n3Cc3ccc(Cl)cc3)cc2s1` [Compound I-1793], the half-maximal inhibitory concentration (IC50) amounted to 0.984 µM.

With `COC(=O)[C@@H](O)Cn1c(=O)[nH]/c(=N\c2ccc(OC(C)C)c(C)c2)n(Cc2ccc(Cl)cc2)c1=O` [Compound I-0994, (S)-1-(4-chlorobenzyl)-6-(3-mehyl-4-isopropoxyphenylimino)-3-(2-methoxycarbonyl-2-hydroxyethyl)-1,3,5-triazinane-2,4-dion], the IC50 came to 0.02 µM.

On to `COC(=O)[C@@H](C)Cn1c(=O)[nH]/c(=N\c2cccc(C3CCCC3)c2)n(Cc2ccc(C)cc2)c1=O` [Compound I-1089], for which the IC50 is 0.487 µM.

Turning to `CCOC(=O)CCn1c(=O)[nH]/c(=N\c2ccc(OC(C)C)c(C)c2)n(Cc2ccc(C)cc2)c1=O` [Compound I-1156], the half-inhibitory concentration (IC50) stood at 0.006 µM.

For `CCOC(=O)CCn1c(=O)[nH]/c(=N\c2ccc(OC(CC)CC)cc2)n(Cc2ccc(C)cc2)c1=O` [Compound I-1054], the IC50 came to 0.018 µM.

As for `CCc1nc2ccc(/N=c3\[nH]c(=O)n(CC(C)(C)C(=O)O)c(=O)n3Cc3ccc(Cl)cc3)cc2s1` [Compound I-1578], the concentration for half-maximal inhibition (IC50) came to 0.006 µM.

Still in this test, the particulars now being: human P2X3 receptor, Test Example 1.
In the case of `CCOC(=O)C(F)(F)Cn1c(=O)[nH]/c(=N\c2ccc(OC(C)C)c(C)c2)n(Cc2ccc(C)cc2)c1=O` [Compound I-0855], the concentration for half-maximal inhibition (IC50) worked out at 0.01 µM.

On to `CC(C)(O)Cn1c(=O)[nH]/c(=N\c2ccc(Oc3ccon3)cc2)n(Cc2ccc(Cl)cc2)c1=O` [Compound I-2672], for which the IC50 turned out to be 0.011 µM.

Consider `CCn1c(=O)[nH]/c(=N\c2ccc(Oc3nnn[nH]3)cc2)n(Cc2ccc(Cl)cc2)c1=O` [Compound I-2515], for which the IC50 was found to be 0.346 µM.

Take `CCn1c(=O)[nH]/c(=N\c2cccc(Oc3nccs3)c2)n(Cc2ccc(Cl)cc2)c1=O` [Compound I-2637]: the IC50 came out at 0.177 µM.

Turning to `CCn1c(=O)[nH]/c(=N\c2ccc3nc(N4CCC4)sc3c2)n(Cc2ccc(Cl)cc2)c1=O` [Compound I-2280], the IC50 came to 0.127 µM.

`Cc1nc2ccc(/N=c3\[nH]c(=O)n(CC(CO)CO)c(=O)n3Cc3ccc(Cl)cc3)cc2s1` [Compound I-1544]: the IC50 came to 0.004 µM.

On to `CCOC(=O)C1(Cn2c(=O)[nH]/c(=N\c3ccc4nc(CC)sc4c3)n(Cc3ccc(C)cc3)c2=O)CC1` [Compound I-1547], for which the IC50 was 0.003 µM.

`Cc1cnc(Oc2ccc(/N=c3\[nH]c(=O)n(CC(CO)CO)c(=O)n3Cc3ccc(Cl)cc3)cc2)s1` [Compound I-2458]: the IC50 was 0.003 µM.
